{"source": "patent US7309484B2", "about": "“Compositions and methods for screening antibacterial compounds” (priority 2003, dated 2007)", "assay_type_in_all_cases": "cell-based, Bacillus subtilis", "key": {"[1]": {"tested_on": "liaI expression (liaI::pMUTIN lacZ fusion, strain BFS2470; also liaH::pMUTIN, BFS2469)", "test": "Disk-diffusion assay, blue ring on X-Gal plates", "excerpt": "The pMUTIN-insertion results in a disruption of the targeted gene and generates a transcriptional fusion to lacZ thereby allowing detection of both antibiotic sensitivity (as defined by the zone of inhibition around the disk) and inducibility (by the formation of a blue ring at the edge of the zone of inhibition) (Cao et al., 2002, Mol Microbiol. 45: 1267-1276, the entire teaching of which is incorporated herein). The disruption of liaI and liaH had no effect on the sensitivity of the mutants to any of the antibiotics tested. […] Equivalent levels of induction were also observed with the PliaI-74-cat-lacZ fragment (in HB0950), albeit with lower fold-changes (See, Table 2). While the mode of action is different for these antibiotics, all four interfere with the lipid II cycle, essential for the biosynthesis of cell envelope polymers (Lazar et al., 2002, Curr. Opin. Chem. Biol. 6: 786-93).\nPliaI induction assays: Screening for liaI induction was done by disk diffusion assay essentially as described (Cai, S. J., and M. Inouye, 2002, J Biol Chem 277:24155-61). B. subtilis strains were inoculated from a fresh overnight LB agar plate and grown to mid-log phase (OD600 ˜0.45) at 37 YC with shaking. 20 μl of the culture was mixed with 3 ml of 0.7% soft LB agar (containing 40 μg of X-Gal per plate) and poured onto the bottom agar. After cooling and drying of the plates (20 min at 37 YC), filter paper disks (6 mm diameter) carrying 5 μl of stock solution (antibiotics normally 100 mg/ml; lysozyme 10 mg/ml; tunicamycin, surfactants, uncouplers 5 mg/ml each; inhibitors of protein biosynthesis as given in the media and growth conditions section) were placed on top of the agar. The plates were incubated at 37 YC overnight. After 12-24 h incubation, the plates were scored for the appearance of a blue ring at or near the edge of the zone of growth inhibition produced by the diffusion of the antibiotics from the filter disk."}, "[2]": {"tested_on": "liaH expression (liaH::pMUTIN, strain BFS2469)", "test": "Quantitative β-galactosidase assay, strain BFS2469", "details": "bacitracin 100 μg/mL, 30 minutes", "protocol": "Specifically, cultures of B. subtilis strain BFS2469 (liaH::pMUTIN) and BFS2470 (liaI::pMUTIN) were grown in LB medium to midlog phase, 2 mL for the un-induced control sample were harvested, and the remaining culture was induced with the three antibiotics for 30 minutes, before the cells of the induced sample were harvested. All samples were taken in duplicate from two independent cultures and the standard deviation is indicated by error bars.\nMeasurement of induction by β-galactosidase assays: Cells were inoculated from fresh overnight LB-plates and grown in LB-medium at 37° C. with aeration until they reached an O.D.600=0.45. 2 mL of cultures were harvested (un-induced control) and the cell pellets were shock frozen and kept at −70° C. The cultures were induced by addition of antibiotics to a final concentration of: bacitracin (100 μg/mL), tunicamycin (50 μg/mL) or vancomycin (2 μg/mL) and incubated for additional 30 min at 37° C. 2 mL of the cultures were harvested as described above (induced sample). The pellets were re-suspended in 1 mL of working buffer and assayed for β-galactosidase activity as described with normalization to cell density (Miller, 1972, the entire teaching of which is incorporated herein by reference)."}, "[3]": {"tested_on": "B. subtilis wild-type strain CU1065 gene expression", "test": "DNA microarray analysis of the bacitracin stimulon, wild-type CU1065", "details": "wild type CU1065, 5 min after bacitracin", "excerpt": "The bacitracin stimulon of B. subtilis was examined using global transcriptome analysis. […] Under most conditions tested, about 60-70 genes were induced greater than 5-fold. […] The scatter-plot represents the data sets obtained for strain HB0920 (yvqH was still detected as bacitracin-inducible due to the presence of a remaining region near the 5′-end of the gene). […] Members of the σ^M (white open squares) and σ^B (small black triangles) regulon are highlighted. All other gene signals are represented as small gray diamonds. […]\nThe bacitracin stimulon in the wild-type strain CU1065 was qualitatively similar to that of the liaH-deletion mutant HB0920 as judged by a comparison of the induction profile at 5 min, as illustrated in FIG. 8. […] Relative hybridization intensities are plotted for genes as measured for CU1065 (x axis) and HB0920 (y axis). […]\nThis locus is therefore a candidate for negative regulation by LiaH. In addition, expression of the bacAB and yvcRS loci was threefold greater in CU1065 than in the liaH mutant when both were measured 5 min after bacitracin treatment. […]\nEach slide contains 9220 features corresponding to duplicate copies of each open reading frame, additional PCR products for some ORFs, rRNA genes, and other controls. […] Fluorescent signal intensity data was quantified using ArrayVision software (Molecular Dynamics) and normalized to the total detectable mRNA. […]"}}, "note": "Bridge positions count the residues as written; N and C are the ends. Square brackets hold non-standard residues; d marks the D form. Peptide text beside a SMILES is read from it. * marks the point of attachment. Ileψ(thiazoline)Cys = CC[C@H](C)[C@H](N)C1=N[C@H](C(=O)*)CS1; dOrn = NCCC[C@@H](N)C(=O)O"}
{"smiles": "CC[C@H](C)[C@H](N)C1=N[C@H](C(=O)N[C@@H](CC(C)C)C(=O)N[C@H](CCC(=O)O)C(=O)N[C@H](C(=O)N[C@H]2CCCCNC(=O)[C@H](CC(N)=O)NC(=O)[C@@H](CC(=O)O)NC(=O)[C@H](Cc3cnc[nH]3)NC(=O)[C@@H](Cc3ccccc3)NC(=O)[C@H]([C@@H](C)CC)NC(=O)[C@@H](CCCN)NC2=O)[C@@H](C)CC)CS1", "note": "[Bacitracin] ({Ileψ(thiazoline)Cys}-L[dE]IK[dOrn]I[dF]H[dD]N; lactam 4-C)", "values": [{"measurement": "disk-diffusion assay", "setting": "[1]; qualitative screen of β-Galactosidase activity, blue ring at edge of zone of inhibition, LB plates with X-Gal, strain BFS2470", "result": "+"}, {"measurement": "induction of liaI / liaH expression, in words", "setting": "[1]; strains BFS2469 and BFS2470", "result": "induced"}, {"measurement": "fold increase in liaH expression", "setting": "[2]", "result": 90, "unit": "fold"}, {"measurement": "induction of yhcYZ/yhdA locus", "setting": "[3]", "result": "not induced"}]}
